Tests used:
corn [1] = experiment: Test A postemergence; format: in vivo, Zea mays; conditions: postemergence, 10 days
In short: (§1)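 Plants were grown in loam and sand and treated preemergence or postemergence (one- to two-leaf stage, 2–10 cm) with compound in solvent plus surfactant. Response was scored against untreated controls after 10 greenhouse days, where 0 means no effect and 100 complete control.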

ryegrass, Italian [2] = experiment: Test A postemergence; format: in vivo, Lolium multiflorum; conditions: postemergence, 10 days
In short: as §1

soybean [3] = experiment: Test A postemergence; format: in vivo, Glycine max; conditions: postemergence, 10 days
In short: as §1

blackgrass [4] = experiment: Test A postemergence; format: in vivo, Alopecurus myosuroides; conditions: postemergence, 10 days
In short: as §1

wheat [5] = experiment: Test A preemergence; format: in vivo, Triticum aestivum; conditions: visual injury after 10 days, 0 to 100 scale, 0 is no effect, 100 is complete control
In short: as §1

ragweed [6] = experiment: Test A preemergence; format: in vivo, Ambrosia artemisiifolia; conditions: visual injury after 10 days, 0 to 100 scale, 0 is no effect, 100 is complete control
In short: as §1

ragweed [7] = experiment: Test A postemergence; format: in vivo, Ambrosia artemisiifolia; conditions: postemergence, 10 days
In short: as §1

soybean [8] = experiment: Test A preemergence; format: in vivo, Glycine max; conditions: visual injury after 10 days, 0 to 100 scale, 0 is no effect, 100 is complete control
In short: as §1

pigweed, palmer [9] = experiment: Test A postemergence; format: in vivo, Amaranthus palmeri; conditions: postemergence, 10 days
In short: as §1

kochia [10] = experiment: Test A postemergence; format: in vivo, Bassia scoparia; conditions: postemergence, 10 days
In short: as §1

blackgrass [11] = experiment: Test A preemergence; format: in vivo, Alopecurus myosuroides; conditions: visual injury after 10 days, 0 to 100 scale, 0 is no effect, 100 is complete control
In short: as §1

horseweed = experiment: Test A postemergence; format: in vivo, Erigeron canadensis; conditions: postemergence, 10 days
In short: as §1

oat, wild [12] = experiment: Test A preemergence; format: in vivo, Avena fatua; conditions: visual injury after 10 days, 0 to 100 scale, 0 is no effect, 100 is complete control
In short: as §1

barnyardgrass [13] = experiment: Test A postemergence; format: in vivo, Echinochloa crusgalli; conditions: postemergence, 10 days
Text: (§2) Seeds of plant species selected from barnyardgrass (Echinochloa crusgalli), blackgrass (Alopecurus myosuroides), corn (Zea mays), foxtail, giant (giant foxtail, Setaria faberi), goosegrass (Eleusine indica), kochia (Bassia scoparia), oat, wild (wild oat, Avena fatua), pigweed, palmer (palmer amaranth, palmer pigweed, Amaranthus palmeri), Pigweed, Redroot (redroot pigweed, Amaranthus retroflexus), ragweed (common ragweed, Ambrosia artemisiifolia), ryegrass, Italian (italian ryegrass, Lolium multiflorum), soybean (Glycine max), and wheat (Triticum aestivum) were planted into a blend of loam soil and sand and treated preemergence with a directed soil spray using test chemicals formulated in a non-phytotoxic solvent mixture which included a surfactant. At the same time, plants selected from these crops and weed species and also galium (catchweed bedstraw, Galium aparine) and horseweed (Erigeron canadensis) were planted in pots containing the same blend of loam soil and sand and treated with postemergence applications of test chemicals formulated in the same manner. Plants ranged in height from 2 to 10 cm and were in the one- to two-leaf stage for the postemergence treatment. Treated plants and untreated controls were maintained in a greenhouse for 10 days, after which time all treated plants were compared to untreated controls and visually evaluated for injury. Plant response ratings, summarized in Table A, are based on a 0 to 100 scale where 0 is no effect and 100 is complete control. A dash (-) response means no test result.

oat, wild [14] = experiment: Test A postemergence; format: in vivo, Avena fatua; conditions: postemergence, 10 days
In short: as §1

kochia [15] = experiment: Test A preemergence; format: in vivo, Bassia scoparia; conditions: visual injury after 10 days, 0 to 100 scale, 0 is no effect, 100 is complete control
In short: as §1

barnyardgrass [16] = experiment: Test A preemergence; format: in vivo, Echinochloa crusgalli; conditions: visual injury after 10 days, 0 to 100 scale, 0 is no effect, 100 is complete control
Text: as §2

corn [17] = experiment: Test A preemergence; format: in vivo, Zea mays; conditions: visual injury after 10 days, 0 to 100 scale, 0 is no effect, 100 is complete control
In short: as §1

pigweed, palmer [18] = experiment: Test A preemergence; format: in vivo, Amaranthus palmeri; conditions: visual injury after 10 days, 0 to 100 scale, 0 is no effect, 100 is complete control
In short: as §1

ryegrass, Italian [19] = experiment: Test A preemergence; format: in vivo, Lolium multiflorum; conditions: visual injury after 10 days, 0 to 100 scale, 0 is no effect, 100 is complete control
In short: as §1

wheat [20] = experiment: Test A postemergence; format: in vivo, Triticum aestivum; conditions: postemergence, 10 days
In short: as §1

foxtail, giant [21] = experiment: Test A preemergence; format: in vivo, Setaria faberi; conditions: visual injury after 10 days, 0 to 100 scale, 0 is no effect, 100 is complete control
In short: as §1

foxtail, giant [22] = experiment: Test A postemergence; format: in vivo, Setaria faberi; conditions: postemergence, 10 days
In short: as §1

galium = experiment: Test A postemergence; format: in vivo, Galium aparine; conditions: postemergence, 10 days
In short: as §1

[23] = 125 g ai/ha, 0 to 100 scale, 0 no effect, 100 complete control
[24] = 500 g ai/ha, visual injury, 0 to 100 scale (0 no effect, 100 complete control)

**Q.** With `Cc1cccc2c1O[C@@H](C)CN2C(=O)c1cccc(-n2cnc(COC(C)C)n2)c1` [Compound 135] as the molecule, how does the “Corn plant response rating” value (corn [1]; [23]) read?
**A.** The value was 10.

**Q.** And the “Plant response rating, Corn” value (corn [1]; [24])?
**A.** Its value is 60.

**Q.** What about the “Ryegrass, Italian plant response rating” value (ryegrass, Italian [2]; [23]) of the same molecule?
**A.** Its value is 0.

**Q.** What about the “Plant response rating, Ryegrass, Italian” value (ryegrass, Italian [2]; [24]) of the same molecule?
**A.** Its value is 50.

**Q.** And the “Soybean plant response rating” value (soybean [3]; [23])?
**A.** Its value is 90.

**Q.** What about the “Plant response rating, Soybean” value (soybean [3]; [24]) of the same molecule?
**A.** The value was 100.

**Q.** And the “Blackgrass plant response rating” value (blackgrass [4]; [23])?
**A.** The value was 0.

**Q.** And the “Plant response rating, Blackgrass” value (blackgrass [4]; [24])?
**A.** Its value is 70.

**Q.** What about the “Plant response rating, Wheat” value (wheat [5]; 125 g ai/ha) of the same molecule?
**A.** The value was 0.

**Q.** And the “Plant response rating, Wheat” value (wheat [5]; 500 g ai/ha)?
**A.** The value was 30.

**Q.** And the “Plant response rating, Ragweed” value (ragweed [6]; 125 g ai/ha)?
**A.** Its value is 0.

**Q.** And the “Plant response rating, Ragweed” value (ragweed [6]; 500 g ai/ha)?
**A.** The value was 0.

**Q.** And the “Ragweed plant response rating” value (ragweed [7]; [23])?
**A.** Its value is 0.

**Q.** What about the “Plant response rating, Ragweed” value (ragweed [7]; [24]) of the same molecule?
**A.** Its value is 30.

**Q.** What about the “Plant response rating, Soybean” value (soybean [8]; 125 g ai/ha) of the same molecule?
**A.** The value was 20.

**Q.** And the “Plant response rating, Soybean” value (soybean [8]; 500 g ai/ha)?
**A.** Its value is 30.

**Q.** And the “Pigweed, Palmer plant response rating” value (pigweed, palmer [9]; [23])?
**A.** Its value is 10.

**Q.** What about the “Plant response rating, Pigweed, Palmer” value (pigweed, palmer [9]; [24]) of the same molecule?
**A.** Its value is 20.

**Q.** And the “Kochia plant response rating” value (kochia [10]; [23])?
**A.** Its value is 0.

**Q.** And the “Plant response rating, Kochia” value (kochia [10]; [24])?
**A.** The value was 50.

**Q.** What about the “Plant response rating, Blackgrass” value (blackgrass [11]; 125 g ai/ha) of the same molecule?
**A.** Its value is 60.

**Q.** What about the “Plant response rating, Blackgrass” value (blackgrass [11]; 500 g ai/ha) of the same molecule?
**A.** Its value is 80.

**Q.** What about the “Horseweed plant response rating” value (horseweed; [23]) of the same molecule?
**A.** The value was 0.

**Q.** And the “Plant response rating, Horseweed” value (horseweed; [24])?
**A.** Its value is 0.

**Q.** What about the “Plant response rating, Oat, Wild” value (oat, wild [12]; 125 g ai/ha) of the same molecule?
**A.** Its value is 60.

**Q.** And the “Plant response rating, Oat, Wild” value (oat, wild [12]; 500 g ai/ha)?
**A.** Its value is 90.

**Q.** What about the “Barnyardgrass plant response rating” value (barnyardgrass [13]; [23]) of the same molecule?
**A.** Its value is 0.

**Q.** What about the “Plant response rating, Barnyardgrass” value (barnyardgrass [13]; [24]) of the same molecule?
**A.** Its value is 10.

**Q.** What about the “Oat, Wild plant response rating” value (oat, wild [14]; [23]) of the same molecule?
**A.** The value was 0.

**Q.** And the “Plant response rating, Oat, Wild” value (oat, wild [14]; [24])?
**A.** Its value is 20.

**Q.** What about the “Plant response rating, Kochia” value (kochia [15]; 125 g ai/ha) of the same molecule?
**A.** Its value is 0.

**Q.** What about the “Plant response rating, Kochia” value (kochia [15]; 500 g ai/ha) of the same molecule?
**A.** The value was 0.

**Q.** What about the “Plant response rating, Barnyardgrass” value (barnyardgrass [16]; 125 g ai/ha) of the same molecule?
**A.** Its value is 30.

**Q.** And the “Plant response rating, Barnyardgrass” value (barnyardgrass [16]; 500 g ai/ha)?
**A.** The value was 70.

**Q.** And the “Plant response rating, Corn” value (corn [17]; 125 g ai/ha)?
**A.** The value was 0.

**Q.** And the “Plant response rating, Corn” value (corn [17]; 500 g ai/ha)?
**A.** The value was 10.

**Q.** What about the “Plant response rating, Pigweed, Palmer” value (pigweed, palmer [18]; 125 g ai/ha) of the same molecule?
**A.** The value was 10.

**Q.** And the “Plant response rating, Pigweed, Palmer” value (pigweed, palmer [18]; 500 g ai/ha)?
**A.** The value was 30.

**Q.** And the “Plant response rating, Ryegrass, Italian” value (ryegrass, Italian [19]; 125 g ai/ha)?
**A.** The value was 60.

**Q.** What about the “Plant response rating, Ryegrass, Italian” value (ryegrass, Italian [19]; 500 g ai/ha) of the same molecule?
**A.** Its value is 90.

**Q.** And the “Wheat plant response rating” value (wheat [20]; [23])?
**A.** The value was 10.

**Q.** And the “Plant response rating, Wheat” value (wheat [20]; [24])?
**A.** Its value is 50.

**Q.** What about the “Plant response rating, Foxtail, Giant” value (foxtail, giant [21]; 125 g ai/ha) of the same molecule?
**A.** The value was 10.

**Q.** And the “Plant response rating, Foxtail, Giant” value (foxtail, giant [21]; 500 g ai/ha)?
**A.** The value was 100.

**Q.** And the “Foxtail, Giant plant response rating” value (foxtail, giant [22]; [23])?
**A.** The value was 10.

**Q.** And the “Plant response rating, Foxtail, Giant” value (foxtail, giant [22]; [24])?
**A.** Its value is 90.

**Q.** What about the “Galium plant response rating” value (galium; [23]) of the same molecule?
**A.** The value was 50.

**Q.** What about the “Plant response rating, Galium” value (galium; [24]) of the same molecule?
**A.** The value was 80.

From US20260262643A1, “HERBICIDAL BENZOXAZINES” (FMC CORPORATION, priority 2022, published 2026)
